One may read the CC50 as the concentration at which the toxic effect on the cells reaches its halfway point. Read a high CC50 as lower toxicity to the cells.

One data set concerns HIV-1RF. As to the kind of experiment: CEM-SS cell-based anti-HIV assay (XTT). Conditions: 3.2µM to 1 mM; CEM-SS cells. As for the experimental part:
(§1) Cell Preparation: Prior to infection, CEM-SS cells were grown in complete tissue culture medium (RPMI 1640 medium with 10% heat-inactivated fetal bovine serum, 2mM L-glutamine, 100 U/mL penicillin, 100 µg/mL streptomycin, 10 µg/mL gentamycin) and transferred to T-150 flasks. On the day preceding the assay, the cells were split 1:2 to assure the cells would be in an exponential growth phase at time of infection. On the day of assay, the cells were washed twice with tissue culture medium and resuspended in fresh tissue culture medium. Total cell and viability counting were performed using a hemacytometer and trypan blue dye exclusion. Cell viability was greater than 95% for the cells to be utilized in the assay. […]
Virus Preparation: Pre-tittered aliquots of HIV-1ROJO and HIV-1RF were removed from the freezer (-80°C) and thawed to room temperature in a biological safety cabinet. The virus was resuspended and diluted into tissue culture medium such that the amount of virus added to each well in a volume of 50 µL will be the amount determined to give complete cell killing at 6 days post-infection.
Tetrazolium dye staining of screening plates: After 6 days of incubation (37°C with 5% CO2), the test plates were analyzed by staining with the tetrazolium dye XTT (2,3-b (2-methoxy-4-nitro-5-sulfophenyl)-2H-tetrazolium -5-carboxanilide). […]
In general terms: Tetrazolium assays rely on reduction of a dye to a coloured formazan, in cell work by metabolically active cells.

The test system of the next data set is HIV-1IIIB. As to the kind of experiment: CEM-SS cell-based anti-HIV assay (XTT). Conditions: 3.2µM to 1 mM; CEM-SS cells.
A further data set is described as follows: in vitro. Type of data set: cell-based. Conditions: human, cem-ss cells. As to the method:
as §1
Tetrazolium dye staining of screening plates: After 6 days of incubation (37°C with 5% CO2), the test plates were analyzed by staining with the tetrazolium dye XTT (2,3-b (2-methoxy-4-nitro-5-sulfophenyl)-2H-tetrazolium -5-carboxanilide). XTT-tetrazolium is metabolized by mitochondrial enzymes of metabolically active cells to a soluble formazan product, allowing the rapid quantitative analysis of the inhibition of HIV-induced cell killing by anti-HIV compounds. […] Plates were sealed with adhesive plate sealers and inverted several times to mix the soluble formazan product and the plate was read spectrophotometrically at 450nm with a Molecular Devices Vmax plate reader. […]

For `O=C(CO)N[C@H]1[C@H]([C@H](O)[C@H](O)CO)OC(O)(C(=O)O)C[C@@H]1O` (stereo partly drawn) [N-glycolylneuraminic acid], the anti-HIV activity result in the data set on HIV-1RF and in the data set on HIV-1IIIB was “did not display anti-HIV activity” in each case. In addition, the CC50 at 144 h in the data set “in vitro” was above 1000 µM.
